Holding throughout (test): inhibition of tumour cell growth, NCI panel, 48 h
The subject of assay [1] is CAKI-1 renal.
For assay [2], the system named is TK-10 renal.
For assay [3], the system named is RXF 393 renal.
The test system of assay [4] is BT-549 breast.
For assay [5], the system named is SF-268 CNS.
Assay [6] relates to MALME-3M melanoma.
Assay [7] deals with MOLT-4 leukemia.
Assay [8] deals with SK-MEL-28 melanoma.
The subject of assay [9] is UACC-257 melanoma.
Assay [10] has as its system UO-31 renal.
Assay [11] deals with KM12 colon.
Assay [12] has as its system COLO 205 colon.
Assay [13] concerns 786-0 renal.
Assay [14] relates to CCRF-CEM leukemia.
The test system of assay [15] is PC-3 prostate.
Assay [16] deals with MDA-N.
Assay [17] relates to IGROV1 ovarian.
The test system of assay [18] is NCI-H226 lung.
The subject of assay [19] is U251 CNS.
The subject of assay [20] is DU-145 prostate.

SMILES strings stand for the structures.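 How tested: cells in 96-well plates exposed to compound for 48 hours at five concentrations. The concentration for full growth arrest is given as TGI.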

In the case of `O=C(O)CC1NC(/C(=C/c2ccccc2)NC(=O)c2ccccc2)OC1=O` (stereo not given), the TGI in assay [1] is more than 100 µM; in [2], more than 100 µM; in assay [3], more than 100 µM; in assay [4] it was 44.2 µM; in assay [5], more than 100 µM; in assay [6], more than 100 µM. In addition, the TGI in [7] is 45.1 µM; in assay [8] it was 52.4 µM; in [9], more than 100 µM; in [10] it was 59 µM; in [11] it was 34.1 µM; in assay [12], 40.6 µM. The TGI in assay [13] is more than 100 µM; in assay [14] it was 86.6 µM; in [15] it was more than 100 µM; in assay [16] it was 86.4 µM; in [17], more than 100 µM; in assay [18] it was 98.6 µM. In addition, the values for the TGI in assay [19] and in [20] were 34.5 µM and more than 100 µM, respectively.

Turning to `OC1(C(F)(F)F)OCCN=C1C(F)(F)F` (stereo not given), the TGI was more than 100 µM in [1]; more than 100 µM in [2]; more than 100 µM in [3]; more than 100 µM in assay [4]; more than 100 µM in assay [5]; 76.4 µM in assay [6]. The TGI in assay [7], in assay [8], in [9], in [10], in assay [11] and in assay [12] was more than 100 µM in each case. Further, the TGI in assay [13], in [14], in [15], in assay [16], in [17] and in [18] was more than 100 µM each time. Further, the TGI in [19] and in [20] was more than 100 µM each time.

For `COC(=O)C1=C(C)NC2=C(C(=O)c3ccccc32)C1c1cn(-c2ccccc2)nc1-c1ccccc1` (stereo not given), the TGI in assay [1], in assay [2], in [3], in assay [4], in [5] and in [6] was more than 100 µM in each case. The TGI was 44.6 µM in assay [7]; more than 100 µM in assay [8]; more than 100 µM in [9]; more than 100 µM in assay [10]; more than 100 µM in assay [11]; more than 100 µM in assay [12]. The TGI in assay [13], in [14], in assay [15], in assay [16], in [17] and in assay [18] was more than 100 µM throughout. For the same molecule, the TGI in assay [19] and in [20] was more than 100 µM each time.

As for `CCCn1c2ccccc2c2ccc3c(c21)C(=O)C=CC3=O`, the TGI was 6.1 µM in [1]; 3.76 µM in [2]; 3.87 µM in assay [3]; 4.9 µM in assay [4]; more than 10 µM in assay [5]; 4.02 µM in assay [6]. In addition, the TGI in assay [7] is 2.26 µM; in assay [8], more than 3.16 µM; in assay [9] it was 5.48 µM; in [10], more than 10 µM; in assay [11], more than 10 µM; in assay [12], 5.17 µM. Also, the TGI in assay [13] was 3.27 µM; in assay [14] it was 0.47 µM; in [15], more than 8.03 µM; in assay [16], 6.43 µM; in assay [17], more than 10 µM; in [18], more than 10 µM. Also, the TGI in assay [19] and in assay [20] was more than 10 µM each time.

The values are drawn from PubChem BioAssay (NCI).
